For the test, the target named is T1, 3-hydroxy-3-methylglutaryl-coenzyme A reductase (Rattus norvegicus, UniProt P51639).
T1 sequence (P51639 whole entry): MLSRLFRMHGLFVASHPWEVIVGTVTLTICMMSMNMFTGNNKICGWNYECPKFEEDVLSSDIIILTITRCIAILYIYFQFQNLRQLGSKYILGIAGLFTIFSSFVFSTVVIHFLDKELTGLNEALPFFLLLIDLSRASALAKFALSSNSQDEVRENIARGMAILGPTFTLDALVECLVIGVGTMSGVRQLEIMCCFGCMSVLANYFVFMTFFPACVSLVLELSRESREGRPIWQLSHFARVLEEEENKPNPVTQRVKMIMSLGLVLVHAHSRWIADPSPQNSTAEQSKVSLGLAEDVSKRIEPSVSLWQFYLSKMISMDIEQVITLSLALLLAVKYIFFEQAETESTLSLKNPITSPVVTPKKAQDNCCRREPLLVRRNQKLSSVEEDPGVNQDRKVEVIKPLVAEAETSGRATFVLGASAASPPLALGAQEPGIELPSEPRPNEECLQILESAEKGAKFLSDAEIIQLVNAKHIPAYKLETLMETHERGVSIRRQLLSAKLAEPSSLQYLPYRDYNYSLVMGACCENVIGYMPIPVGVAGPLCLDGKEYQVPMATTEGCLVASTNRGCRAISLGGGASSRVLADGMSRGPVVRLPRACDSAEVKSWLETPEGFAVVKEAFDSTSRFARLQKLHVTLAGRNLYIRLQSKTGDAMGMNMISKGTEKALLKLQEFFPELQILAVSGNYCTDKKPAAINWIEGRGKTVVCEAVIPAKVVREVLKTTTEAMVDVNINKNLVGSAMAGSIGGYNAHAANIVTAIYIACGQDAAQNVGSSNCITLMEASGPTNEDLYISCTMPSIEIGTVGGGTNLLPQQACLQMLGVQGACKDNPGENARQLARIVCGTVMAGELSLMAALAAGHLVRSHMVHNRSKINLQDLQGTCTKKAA
The experiment in a line: Inhibition of solubilized, purified rat liver HMG-CoA reductase.
For the molecule `CCCCCCCCCC(=O)O[C@H]1C[C@@H](C)C=C2C=C[C@H](C)[C@H](CC[C@@H]3C[C@@H](O)CC(=O)O3)C21` (some centres undefined), the midpoint of inhibition, the IC50, lay at 295 nM.
On to `CCCC(CC)(CC)C(=O)O[C@H]1C[C@@H](C)C=C2C=C[C@H](C)[C@H](CC[C@@H]3C[C@@H](O)CC(=O)O3)C21` (some centres undefined), for which the 50% inhibitory concentration (IC50) stood at 1.9 nM.
With `CCCCC(=O)O[C@H]1C[C@@H](C)C=C2C=C[C@H](C)[C@H](CC[C@@H]3C[C@@H](O)CC(=O)O3)C21` (some centres undefined), the IC50 was determined as 8.7 nM.
As for `CC(C)CC(=O)O[C@H]1C[C@@H](C)C=C2C=C[C@H](C)[C@H](CC[C@@H]3C[C@@H](O)CC(=O)O3)C21` (some centres undefined), the IC50 was found to be 5.4 nM.
With `C=C(C)CC(=O)O[C@H]1C[C@@H](C)C=C2C=C[C@H](C)[C@H](CC[C@@H]3C[C@@H](O)CC(=O)O3)C21` (some centres undefined) the figure was 2.9 nM.
As to `CC(CC(=O)O[C@H]1C[C@@H](C)C=C2C=C[C@H](C)[C@H](CC[C@@H]3C[C@@H](O)CC(=O)O3)C21)C(F)(F)F` (some centres undefined), it took 3.5 nM to reach half-maximal inhibition (IC50).
`CCC(CC)(CC)C(=O)O[C@H]1C[C@@H](C)C=C2C=C[C@H](C)[C@H](CC[C@@H]3C[C@@H](O)CC(=O)O3)C21` (some centres undefined) yielded an IC50 of 1.4 nM.
`C[C@H]1C=C2C=C[C@H](C)[C@H](CC[C@@H]3C[C@@H](O)CC(=O)O3)C2[C@@H](OC(=O)Oc2ccccc2)C1` (some centres undefined) showed an IC50 of 83 nM.
`CCC(C)(CC)C(=O)O[C@H]1C[C@@H](C)C=C2C=C[C@H](C)[C@H](CC[C@@H]3C[C@@H](O)CC(=O)O3)C21` (some centres undefined) showed an IC50 of 1.4 nM.
The same measure for `C[C@H]1C=C2C=C[C@H](C)[C@H](CC[C@@H]3C[C@@H](O)CC(=O)O3)[C@H]2[C@@H](OC(=O)Cc2ccccc2)C1`: 19 nM; for `CC(=O)O[C@H]1C[C@@H](C)C=C2C=C[C@H](C)[C@H](CC[C@@H]3C[C@@H](O)CC(=O)O3)C21` (some centres undefined): 269 nM; for `C[C@H]1C=C2C=C[C@H](C)[C@H](CC[C@@H]3C[C@@H](O)CC(=O)O3)C2[C@@H](OC(=O)c2ccc(F)cc2)C1` (some centres undefined): 37 nM.
The molecule `CC[C@@H](C)C(=O)O[C@H]1C[C@@H](C)C=C2C=C[C@H](C)[C@H](CC[C@@H]3C[C@@H](O)CC(=O)O3)C21` (some centres undefined) gave an IC50 of 2.2 nM.
`CC(C)C(=O)O[C@H]1C[C@@H](C)C=C2C=C[C@H](C)[C@H](CC[C@@H]3C[C@@H](O)CC(=O)O3)C21` (some centres undefined) had an IC50 of 7.7 nM.
The same measure for `C[C@H]1C=C2C=C[C@H](C)[C@H](CC[C@@H]3C[C@@H](O)CC(=O)O3)C2[C@@H](OC(=O)C23CC4CC(CC(C4)C2)C3)C1` (some centres undefined): 3.8 nM.
`CC[C@H](C)C(=O)O[C@H]1C[C@@H](C)C=C2C=C[C@H](C)[C@H](CC[C@@H]3C[C@@H](O)CC(=O)O3)C21` (some centres undefined) had an IC50 of 2.2 nM.
`CC(C)=CC(=O)O[C@H]1C[C@@H](C)C=C2C=C[C@H](C)[C@H](CC[C@@H]3C[C@@H](O)CC(=O)O3)C21` (some centres undefined) returned an IC50 of 27.3 nM.
In the case of `C[C@H]1C=C2C=C[C@H](C)[C@H](CC[C@@H]3C[C@@H](O)CC(=O)O3)C2[C@@H](OC(=O)C2CC2)C1` (some centres undefined), half-maximal inhibition (IC50) required 38.6 nM.
The molecule `C[C@H]1C=C2C=C[C@H](C)[C@H](CC[C@@H]3C[C@@H](O)CC(=O)O3)C2[C@@H](OC(=O)C(C)(C)C)C1` (some centres undefined) gave an IC50 of 2.7 nM.

What is called IC50 is the concentration that inhibits the measured activity by half. Low readings indicate greater potency, high ones weaker potency.

The record behind these values is ChEMBL document CHEMBL1123526, “3-Hydroxy-3-methylglutaryl-coenzyme A reductase inhibitors. 4. Side chain ester derivatives of mevinolin” (J Med Chem, 1986).
